Laboratory results reported in publication PMC8904520, “Characterization of a small-molecule inhibitor targeting NEMO/IKKβ to suppress colorectal cancer growth” (Signal Transduction and Targeted Therapy, 2022).

How the values were obtained:
[1] = target: T1, NEMO/IKKβ complex (Homo sapiens, UniProt O14920+Q9Y6K9); assay: Co-immunoprecipitation of NEMO/IKKβ; settings: pre-formed complex, Co-IP
T1 construct: expressed in transfected cells; host or cells: HEK293T
Procedure: The pre-cleared cell lysates were incubated with an anti-HA antibody on a rotating platform at 4 °C for 2 h, and then incubated for another 6 h with protein A/G-sepharose beads. The sepharose beads were washed three times with binding buffer, mixed with gel loading buffer and boiled for 5 min. The samples were centrifuged and the supernatants were used for western blot analysis. A specific antibody against the Flag-tag was applied for the detection of proteins.
The IKKβ and NEMO expression vectors were constructed by subcloning the full-length cDNA to pENTER-4T1 expression vector (Flag- or HA-tagged) developed by ViGene Biosciences, as described previously.[25] The 293T cells (1 × 10^6) were plated into 60 mm dishes for 1 day, and then transfected with the relevant plasmids encoding HA-IKKβ and Flag-NEMO using Lipofectamine 2000 transfection reagent (Invitrogen). After transfection, the cells were cultured for another 24 h. Subsequently, the transfected cells were trypsinized and seeded into 60 mm dishes, followed by culturing with fresh medium containing the indicated doses of SHK for 48 h, and then collected for the Co-IP assay.

[2] = test system: colorectal cancer cells (LoVo, RKO, SW620, HCT15, HCT116); assay: CCK-8 cell viability assay, colorectal cancer cells; format: cell-based, human; settings: LoVo, RKO, SW620, HCT15, HCT116; 48 h
Procedure: Cell viability was determined using the CCK-8 assay. Briefly, 5×10³ cells were seeded into 96-well culture plates, allowed to adhere for overnight, and then changed to fresh medium containing various concentrations of SHK (0, 0.5, 1, 2 and 5 µM) dissolved in DMSO (final concentration, 0.1%). After incubation for 48 h, the CCK-8 reagent was added, and the absorbance was measured at 450 nm using an EnSpire® Multimode Plate Reader (Perkin Elmer, USA). The cell viability in the vehicle control groups was defined as 100%. Each assay was carried out in triplicate.

T1 sequence (Q9Y6K9 1-196): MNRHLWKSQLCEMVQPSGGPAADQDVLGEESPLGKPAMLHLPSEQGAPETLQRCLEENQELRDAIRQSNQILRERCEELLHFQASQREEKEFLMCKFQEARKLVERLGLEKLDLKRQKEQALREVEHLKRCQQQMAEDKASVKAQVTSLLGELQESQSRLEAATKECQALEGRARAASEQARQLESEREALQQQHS
T1 sequence (O14920 701-745): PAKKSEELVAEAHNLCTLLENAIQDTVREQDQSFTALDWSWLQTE

For `CC(=O)O[C@H](CC=C(C)C)C1=CC(=O)c2c(O)ccc(O)c2C1=O` [ASHK, acetyl shikonin], the “ability to destabilize the NEMO/IKKβ complex” value [1] was “lost the ability to destabilize the NEMO/IKKβ complex” and the “growth inhibition of cancer cell lines” value [2] was “only slight growth inhibition”.
`CC(C)=CCCC1=CC(=O)c2c(O)ccc(O)c2C1=O` [DSHK, deoxyshikonin] was tested, and the “ability to destabilize the NEMO/IKKβ complex” value [1] was “lost the ability to destabilize the NEMO/IKKβ complex” and the “growth inhibition of cancer cell lines” value [2] was “only slight growth inhibition”.
In the case of `COC(CC=C(C)C)C1=CC(=O)c2c(O)ccc(O)c2C1=O` (stereo not drawn) [MSHK, methylshikonin], the “ability to destabilize the NEMO/IKKβ complex” value [1] is reported as “lost the ability to destabilize the NEMO/IKKβ complex” and the “growth inhibition of cancer cell lines” value [2] is reported as “only slight growth inhibition”.
